The structures appear in SMILES notation. Converted amounts (≈) assume the structure as drawn.

For the first assay, the system named is Enterococcus faecium. Description: Minimum inhibitory concentration against vancomycin-resistant Enterococcus faecium (VRE). Format: functional.
Conditions: not given
Compound `Clc1ccc2ccc(-c3c[nH]c4ccc(Br)cc34)nc2c1` gave an MIC greater than 25 µg/mL.

As to `NCc1cc(-c2c[nH]c3ccc(Br)cc23)nc2cc(Cl)ccc12`, the MIC was 1.56 µg/mL (≈ 4.03 µM).

For `Clc1ccc2c(c1)[C@H]1NCC[C@H]1[C@@H](c1c[nH]c3ccc(Cl)cc13)N2`, the MIC was greater than 25 µg/mL.

On to `Clc1ccc2c(c1)[C@H]1NCC[C@H]1[C@H](c1c[nH]c3ccc(Cl)cc13)N2`, for which the MIC was greater than 25 µg/mL.

The next assay has as its system Staphylococcus aureus. Description: Minimum inhibitory concentration against methicillin-resistant Staphylococcus aureus. The class given is functional.
Conditions: not given
`Clc1ccc2c(c1)[C@H]1OCC[C@H]1[C@@H](c1c[nH]c3ccc(Br)cc13)N2` (stereo in doubt) had an MIC of 0.31 µg/mL (≈ 0.768 µM).

`Clc1ccc2c(c1)[C@H]1OCC[C@H]1[C@@H](c1c[nH]c3ccc(Br)cc13)N2` (stereo in doubt; 9) returned an MIC of 3.13 µg/mL (≈ 7.75 µM).

The assay is the same for the next values; noted with them: Staphylococcus aureus; read-out: MIC.
As for `Clc1ccc2ccc(-c3c[nH]c4ccc(Br)cc34)nc2c1`, the minimal inhibitory concentration (MIC) was determined as 0.6 µg/mL (≈ 1.68 µM).

Take `FC(F)(F)c1cccc2c1N[C@H](c1c[nH]c3ccc(Br)cc13)[C@@H]1CCO[C@H]21`: the minimal inhibitory concentration (MIC) amounted to 0.78 µg/mL (≈ 1.78 µM).

`Clc1ccc2c(c1)N(Cl)[C@H](c1c[nH]c3ccc(Br)cc13)[C@@H]1CCO[C@H]21`: the MIC worked out at 1.56 µg/mL (≈ 3.56 µM).

As to `CC(C)(C)OC(=O)N1CC[C@@H]2[C@H]1c1cc(Cl)ccc1N[C@H]2c1c[nH]c2ccc(Br)cc12`, the minimum inhibitory concentration (MIC) is 1.56 µg/mL (≈ 3.1 µM).

As to `Fc1cccc2c1N[C@H](c1c[nH]c3ccc(Br)cc13)[C@@H]1CCO[C@H]21`, the minimal inhibitory concentration (MIC) came to 0.78 µg/mL (≈ 2.01 µM).

On to `Clc1ccc2c(c1)[C@H]1OCC[C@H]1[C@H](c1c[nH]c3ccc(Br)cc13)N2`, for which the minimum inhibitory concentration (MIC) was 3.13 µg/mL (≈ 7.76 µM).

For the compound `Clc1cc(Cl)c2c(c1)[C@H]1OCC[C@H]1[C@@H](c1c[nH]c3ccc(Br)cc13)N2`, the MIC was 1.56 µg/mL (≈ 3.56 µM).

Take `Clc1ccc2c(c1)[C@H]1OCC[C@H]1[C@H](c1c[nH]c3ccc(Cl)cc13)N2`: the MIC worked out at 3.13 µg/mL (≈ 8.71 µM).

On to `NCc1cc(-c2c[nH]c3ccc(Br)cc23)nc2cc(Cl)ccc12`, for which the minimum inhibitory concentration (MIC) was 0.78 µg/mL (≈ 2.02 µM).

As to `Clc1ccc2c(c1)[C@H]1NCC[C@H]1[C@@H](c1c[nH]c3ccc(Cl)cc13)N2`, the MIC was found to be 3.13 µg/mL (≈ 8.74 µM).

In the case of `Fc1ccc2c(c1)[C@H]1OCC[C@H]1[C@@H](c1c[nH]c3ccc(Br)cc13)N2`, the minimum inhibitory concentration (MIC) was determined as 6.25 µg/mL (≈ 16.1 µM).

As for `Brc1ccc2[nH]cc([C@H]3Nc4ccc(CCCN5CCCCC5)cc4[C@H]4OCC[C@@H]34)c2c1`, the MIC came out at 12.5 µg/mL (≈ 25.3 µM).

On to `CC(C)(C)OC(=O)N1CC[C@H]2[C@@H](c3c[nH]c4ccc(Br)cc34)Nc3ccc(Cl)cc3[C@H]21`, for which the MIC came to 0.78 µg/mL (≈ 1.55 µM).

As to `CN1c2ccc(Cl)cc2[C@H]2OCC[C@H]2[C@H]1c1c[nH]c2ccc(Br)cc12`, the MIC was greater than 25 µg/mL.

Turning to `Clc1ccc2c(c1)[C@H]1OCC[C@H]1[C@@H](c1c[nH]c3ccc(Cl)cc13)N2`, the minimum inhibitory concentration (MIC) was determined as 0.78 µg/mL (≈ 2.17 µM).

As to `Brc1ccc2[nH]cc([C@H]3Nc4ccc(C#CCN5CCCCC5)cc4[C@H]4OCC[C@@H]34)c2c1`, the MIC was 1.56 µg/mL (≈ 3.18 µM).

As to `Clc1ccc2c(c1)[C@H]1NCC[C@H]1[C@H](c1c[nH]c3ccc(Cl)cc13)N2`, the MIC is 6.25 µg/mL (≈ 17.4 µM).

On to `Clc1ccc2c(c1)[C@H]1OCC[C@H]1[C@@H](c1c[nH]c3ccccc13)N2`, for which the minimal inhibitory concentration (MIC) is greater than 25 µg/mL.

Consider `Fc1ccc2c([C@H]3Nc4ccc(Cl)cc4[C@H]4OCC[C@@H]34)c[nH]c2c1`, for which the minimum inhibitory concentration (MIC) amounted to 6.25 µg/mL (≈ 18.2 µM).

Take `OCC#Cc1ccc2c(c1)[C@H]1OCC[C@H]1[C@@H](c1c[nH]c3ccc(Br)cc13)N2`: the MIC came out at 3.13 µg/mL (≈ 7.39 µM).

On to `Clc1ccc2c(c1)[C@H]1OCC[C@H]1[C@H](c1c[nH]c3ccccc13)N2`, for which the minimum inhibitory concentration (MIC) was found to be 6.25 µg/mL (≈ 19.2 µM).

On to `Fc1ccc2c([C@@H]3Nc4ccc(Cl)cc4[C@H]4OCC[C@H]43)c[nH]c2c1`, for which the MIC is 12.5 µg/mL (≈ 36.5 µM).

With `Brc1ccc2[nH]cc([C@H]3Nc4c(I)cccc4[C@H]4OCC[C@@H]34)c2c1`, the MIC was less than 0.39 µg/mL.

As for `Cc1[nH]c2ccccc2c1[C@H]1Nc2ccc(Cl)cc2[C@H]2OCC[C@@H]12`, the MIC is greater than 25 µg/mL.

`COc1cccc2c1N[C@H](c1c[nH]c3ccc(Br)cc13)[C@@H]1CCO[C@H]21`: the minimal inhibitory concentration (MIC) is 1.56 µg/mL (≈ 3.91 µM).

These data come from ChEMBL document CHEMBL1135361, “Potent in vitro methicillin-resistant Staphylococcus aureus activity of 2-(1H-indol-3-yl)tetrahydroquinoline derivatives” (2002).
